# Reference: PMC10970558 (International Journal of Molecular Sciences, 2024)
# Several values for one entry are separate records, joined by “and”; a condition that tells them apart may be missing. Equal values may be shown once. Read-outs that look alike come from different tables or passages of the source.
# Assays:
# [1] = system: BJ normal fibroblasts; experiment: Neutral red (NR) cytotoxicity assay; format: cell-based, human; conditions: for IC50: 24 h treatment, AAT Bioquest IC50 calculator
# Method: (§1) After 24 h exposure to drugs, assay was performed as described.
# [2] = Neutral red (NR) cytotoxicity assay; format: cell-based, human; conditions: human, HaCaT immortalized keratinocytes, 50 µM, 24 h, NR assay
# Method: as §1
# [3] = system: HaCaT immortalized keratinocytes; experiment: Neutral red (NR) cytotoxicity assay; format: cell-based, human; conditions: for IC50: 24 h treatment, NR assay, AAT Bioquest IC50 calculator
# Method: as §1
# [4] = system: BJ normal fibroblasts; experiment: Migration (scratch) assay; format: cell-based, human; conditions: 12 h
# Method: (§2) Cells were seeded in 24-well plates at 1.5 × 10^5 cells/well in 600 µL culture medium and incubated at 37 °C for 24 h to obtain full confluence. Afterwards, cells were scraped with a sterile 200 µL pipette tips and debris was removed. […] Medium with lowered 2% FBS was used to inhibit cell division. […] Assay was performed as described. The results were expressed as % of scraped area closure estimated as ratio of area measured before and after treatment with drugs.
# [5] = system: HaCaT immortalized keratinocytes; experiment: Migration (scratch) assay; format: cell-based, human
# Method: as §2
# [6] = system: BJ normal fibroblasts; experiment: Intracellular ATP level (CellTiter-Glo); format: cell-based, human; conditions: 24 h
# Method: (§3) Intracellular level of ATP was estimated with commercially available bioluminescent CellTiter-Glo® Assay kit from Promega, which was prepared according to manufacturer’s protocol and added to cells (100 μL/well). After 10 min incubation at RT the luminescence was measured using the Infinite M200 PRO Multimode Microplate Reader (TECAN Group Ltd., Männedorf, Switzerland) against blank (wells with the CellTiter-Glo® reagent only). The luminescence signal was proportional to ATP level. At the same time a parallel assay was performed, and cells were labeled with […] DAPI (as described above in proliferation assay). Using calibration curve, the DAPI fluorescence signal was used to estimate the number of cells in each well and to calculate luminescence signal intensity from ATP per one cell. The results were expressed as % of the control (non-treated cells).
# [7] = system: HaCaT immortalized keratinocytes; experiment: Intracellular ATP level (CellTiter-Glo); format: cell-based, human; conditions: 24 h
# Method: as §3
# [8] = system: BJ normal fibroblasts; experiment: Caspase 3/7 activity (apoptosis); format: cell-based, human; conditions: 24 h
# Method: (§4) As an apoptosis marker, Caspase 3/7 activity was measured with Apo-ONE® Homogenous Caspase-3/7 Assay (Promega). The fluorescence as determinant of caspase-3/7 activity was read at 485/535 nm using Tecan Infinite M200 PRO Multimode Microplate Reader (TECAN Group Ltd., Männedorf, Switzerland) and results were adjusted relatively to the number of cells per well (the number of cells was determined by fluorescence measurement after DAPI staining).
# [9] = system: HaCaT immortalized keratinocytes; experiment: Caspase 3/7 activity (apoptosis); format: cell-based, human; conditions: 24 h
# Method: as §4
# [10] = system: glioma stem cells GSC; set-up: method as in PMID 18509487; conditions: mouse model of malignant glioma; cited from earlier work
# [11] = system: C. elegans; experiment: In vivo toxicity, C. elegans survival; conditions: for concentration at which toxic: 7 days incubation, tested 25–400 µM; for effect on the entire nematode organism: up to 100 µM, up to 4th day of incubation
# Method: (§5) Nematodes wild-type culture (strain N2) was maintained at 20 °C on NGM agar plates with bacteria Escherichia coli OP50 as food source. C. elegans culture was synchronized by treatment with hypochlorite. Obtained eggs were left in M9 buffer at room temperature to hatch until the following day. The next day L1 worms were placed on NGM plates with E. coli OP50 and left at 20 °C until reaching L4 stage (approximately 44 h). L4 worms were transferred to 15 mL falcons by washing NGM plates twice with 5 mL water and centrifuged at 1500 rpm for 3–4 min. Then supernatant was aspirated. Pellet was re-suspended with 5 mL of complete S medium followed by centrifugation. Subsequently the density of nematodes suspension was assessed according to Scanlan et al.. Worms were suspended in complete S medium with E. coli OP50 (1:1000), 0.08% cholesterol (5 mg/mL in Et-OH), 1% penicillin-streptomycin, 1% nystatin, and 100 mM FUdR (at final concentration 200 µM) to obtain 20 nematodes in 50 μL. FUdR was added to sterilize nematodes. After that worms were transferred to 96-well plate. The working solutions of tested drugs were prepared in the complete S medium with 0.1% DMSO and placed into a 96-well plate with previously seeded worms. Then, worms were incubated at 21 °C for 7 days. Live (moving and curling) and dead nematodes were counted every day with an inverted microscope with contrast phase (Delta Optical IB-100). Images of treated C. elegans were also collected. The assay was performed in triplicates in three independent experiments.
# (§6) To analyze differences in nematode viability incubated with the respective concentrations of the compounds, the Kaplan–Meier estimator was used. Statistically significant differences between the control and treated groups were determined with Gehan’s Wilcoxon test. Statistically significant differences in body size between the control and treated groups were determined using a Kruskal–Wallis. p < 0.05 was considered statistically significant. All analyses and calculations were performed using Statistica 13.3 software (StatSoft, Cracow, Poland).
# [12] = In vivo toxicity, C. elegans survival; conditions: N2, Caenorhabditis elegans, in vivo, other: exposure in complete S medium in 96-well plate, 7 days incubation, read-out: viability (living individuals)
# Method: as §5, §6
# [13] = system: A172 glioma cells; set-up: method as in PMID 37574500; conditions: A172, 24 h incubation; cited from earlier work
# [14] = system: C. elegans; experiment: In vivo toxicity, C. elegans body length; set-up: species or system Caenorhabditis elegans
# Method: as §5, §6
# [15] = system: U87 glioma; set-up: method as in PMID 33941107; conditions: cited from earlier work
# [16] = system: BJ normal fibroblasts; experiment: Proliferation assay (DAPI, 72 h); format: cell-based, human
# Method: Cells were seeded into 96-well, clear microplates at density 4 × 10^3 cells/well and incubated 24 h at 37 °C to attach. […] DMSO concentration was adjusted to 0.1% in all samples. The plates were placed for 72 h in incubator. Then, cells were washed with PBS and fixed in 3.7% formaldehyde solution in PBS for 15 min at RT, again washed with PBS and nuclei were staining with 600 nM DAPI solution in PBS (100 µL/well, 1 h). The fluorescent signal, proportional to the number of cells, was measured in Tecan Infinite M200 PRO Mulitmode Microplate Reader (TECAN Group Ltd., Männedorf, Switzerland) at 360 nm/460 nm. The results were expressed as % of the 0.1% DMSO treated control.
# [17] = system: PPARγ in BJ cells; experiment: PPARγ level, Western blot; format: cell-based, human; conditions: non-toxic concentration (12.5 µM), 24 h
# [18] = target: PPARγ; set-up: method as in PMID 11684010; conditions: cited from earlier work
smiles,measurement,setting,value
"Cc1ccc(-c2cc(C(F)(F)F)nn2-c2ccc(S(N)(=O)=O)cc2)cc1 [CXB, celecoxib]",IC50,"[1]; Homo sapiens, Fibroblast",77.6 µM
same,"viability at 24 h, 50 µM",[2],~65%
same,IC50,"[3]; Homo sapiens, read-out: IC50",59.5 µM
same,concentration from which migration was reduced,[4],≥ 50 µM
same,concentration from which migration was reduced,[5]; 24 h,≥ 50 µM
same,concentration at which intracellular ATP level increased,[6],25 µM
same,concentration at which intracellular ATP level increased,[7],25 µM and 50 µM
same,concentration from which caspase 3/7 activity increased / apoptosis induced,[8],≥ 50 µM
same,concentration from which caspase 3/7 activity increased / apoptosis induced,[9],≥ 50 µM
same,IC50,[10],60 µM
same,concentration at which lifespan was significantly shortened,[11]; 7-day treatment,25 to 400 µM
same,concentration at which toxic,[11],25 µM
same,effect on the entire nematode organism,[11],no significant effect
same,"viability at 7 days, 200 µM",[12]; 200 µM,60%
same,"viability at 7 days, 400 µM",[12]; 400 µM,73%
same,concentration from which cells were significantly destroyed via apoptosis,[13],≥ 25 µM
same,reduction of body length,"[14]; 200 µM, 7 days",25%
same,concentration at which body length was significantly shortened,[14]; 7-day treatment,50 to 400 µM
same,body length versus control group,"[14]; 50 and 400 µM, 7 days",more than twice as short
CC1(COc2ccc(CC3SC(=O)NC3=O)cc2)CCCCC1 (centres unmarked) [Ciglitazone],"concentration inhibiting growth of U87 glioma tumors, colony formation and migration",[15],20 µM
"CC(C)C[C@H](NC(=O)OCC1c2ccccc2-c2ccccc21)C(=O)O [FL, Fmoc-L-Leucine]",viability,"[1]; 100 µM, 24 h",about 70%
same,IC50,[1],400 µM
same,IC50,[3],≫
same,sensitivity of cells,[3]; up to the highest (100 µM) concentration,not sensitive
same,concentration from which migration was reduced,[4],≥ 50 µM
same,effect on migration,[5]; entire range of concentrations used (25–100 µM),did not affect
same,concentration at which cell division was inhibited,[16],100 µM
same,concentration at which intracellular ATP level decreased,[6],100 µM
same,concentration at which intracellular ATP level increased,[7],100 µM
same,concentration from which caspase 3/7 activity increased / apoptosis induced,[8],≥ 50 µM
same,change of caspase 3/7 activity level,[9],reduced
same,increase of PPARγ level,[17],55% and 50%
same,concentration at which toxic,[11],400 µM
same,effect on the entire nematode organism,[11],no significant effect
same,Ki,[18],15 µM
same,change in nematode body length,[14]; 7 days,did not significantly affect
COC(=O)Nc1nc2ccc(C(=O)c3ccccc3)cc2[nH]1 [mebendazole],IC50,"[11]; Caenorhabditis elegans, data from our studies",4 µM
Cc1c(C)c2c(c(C)c1O)CCC(C)(COc1ccc(CC3SC(=O)NC3=O)cc1)O2 (centres unmarked) [troglitazone],"concentration inhibiting growth of U87 glioma tumors, colony formation and migration",[15],20 µM
